# According to PubChem BioAssay (NCI):
#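 48-hour exposure; five concentrations; linearly interpolated endpoints. GI50 marks 50% less growth. TGI marks complete inhibition of growth.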
# Experiments:
# Experiment in all cases: growth of human tumour cells (NCI), 48 h
# [1] = system: SW-620 colon
# [2] = system: TK-10 renal
# [3] = system: LXFL 529 NSCLC
# [4] = system: SK-MEL-28 melanoma
# [5] = system: NCI-H23 lung
# [6] = system: MALME-3M melanoma
# [7] = system: NCI-H522 lung
# [8] = system: MOLT-4 leukemia
# [9] = system: UACC-257 melanoma
# [10] = system: SN12C renal
# [11] = system: ACHN renal
# [12] = system: NCI-H460 lung
# [13] = system: SNB-19 CNS
# [14] = system: RPMI-8226 leukemia
# [15] = system: SF-295 CNS
# [16] = system: M19-MEL melanoma
# [17] = system: SNB-75 CNS
# [18] = system: A549 NSCLC
# [19] = system: OVCAR-8 ovarian
# [20] = system: HCC-2998 colon
# [21] = system: SK-MEL-2 melanoma
# [22] = system: SK-OV-3 ovarian
# [23] = system: XF 498 CNS
# [24] = system: KM20L2 colon
# [25] = system: OVCAR-5 ovarian
# [26] = system: SNB-78 CNS
# [27] = system: HOP-62 NSCLC
# [28] = system: CCRF-CEM leukemia
# [29] = system: UO-31 renal
# [30] = system: SR leukemia
# [31] = system: HOP-92 NSCLC
# [32] = system: KM12 colon
# [33] = system: NCI-H226 lung
# [34] = system: 786-0 renal
# [35] = system: M14 melanoma
# [36] = system: A498 renal
# [37] = system: EKVX NSCLC
# [38] = system: OVCAR-4 ovarian
# [39] = system: HT29 colon
# [40] = system: K-562 leukemia
# [41] = system: UACC-62 melanoma
# [42] = system: U251 CNS
# [43] = system: SF-268 CNS
# [44] = system: OVCAR-3 ovarian
# [45] = system: COLO 205 colon
# [46] = system: DLD-1 colon
# [47] = system: HL-60(TB) leukemia
# [48] = system: CAKI-1 renal
# [49] = system: HCT-15 colon
# [50] = system: HCT-116 colon
# [51] = system: DMS 273 small cell lung
# [52] = system: SK-MEL-5 melanoma
# [53] = system: LOX IMVI melanoma
# [54] = system: RXF 393 renal
# [55] = system: DMS 114 small cell lung
# [56] = system: HOP-18 NSCLC
# [57] = system: IGROV1 ovarian
# [58] = system: SF-539 CNS
smiles,measurement,setting,value
N#CC(c1ccc(Cl)cc1)c1cccc(Cl)n1 (stereo unspecified),TGI,[1],> 100 µM
same,TGI,[2],> 100 µM
same,TGI,[3],> 100 µM
same,TGI,[4],> 100 µM
same,TGI,[5],> 100 µM
same,TGI,[6],> 100 µM
same,TGI,[7],> 100 µM
same,TGI,[8],> 100 µM
same,TGI,[9],> 100 µM
same,TGI,[10],> 100 µM
same,TGI,[11],> 100 µM
same,TGI,[12],> 100 µM
same,TGI,[13],> 100 µM
same,TGI,[14],> 100 µM
same,TGI,[15],> 100 µM
same,TGI,[16],> 100 µM
same,TGI,[17],84.3 µM
same,TGI,[18],> 100 µM
same,TGI,[19],> 100 µM
same,TGI,[20],> 100 µM
same,TGI,[21],> 100 µM
same,TGI,[22],> 100 µM
same,TGI,[23],78.7 µM
same,TGI,[24],> 100 µM
same,TGI,[25],> 100 µM
same,TGI,[26],> 100 µM
same,TGI,[27],> 100 µM
same,TGI,[28],> 100 µM
same,TGI,[29],> 100 µM
same,TGI,[30],> 100 µM
same,TGI,[31],74.8 µM
same,TGI,[32],> 100 µM
same,TGI,[33],> 100 µM
same,TGI,[34],> 100 µM
same,TGI,[35],> 100 µM
same,TGI,[36],> 100 µM
same,TGI,[37],> 100 µM
same,TGI,[38],> 100 µM
same,TGI,[39],> 100 µM
same,TGI,[40],> 100 µM
same,TGI,[41],> 100 µM
same,TGI,[42],> 100 µM
same,TGI,[43],> 100 µM
same,TGI,[44],> 100 µM
same,TGI,[45],> 100 µM
same,TGI,[46],> 100 µM
same,TGI,[47],> 100 µM
same,TGI,[48],> 100 µM
COC1=CC(C)C2C[C@H]3O[C@H](O)C[C@H]4C(C)C(=O)C(O)C([C@@]2(C)C1=O)[C@@]34C (stereo partly specified),TGI,[1],> 100 µM
same,TGI,[49],> 100 µM
same,TGI,[2],> 100 µM
same,TGI,[50],> 100 µM
same,TGI,[3],> 100 µM
same,TGI,[4],> 100 µM
same,TGI,[5],> 100 µM
same,TGI,[6],> 100 µM
same,TGI,[7],> 100 µM
same,TGI,[8],> 100 µM
same,TGI,[9],> 100 µM
same,TGI,[10],> 100 µM
same,TGI,[11],> 100 µM
same,TGI,[12],> 100 µM
same,TGI,[14],> 100 µM
same,TGI,[51],> 100 µM
same,TGI,[52],> 100 µM
same,TGI,[15],> 100 µM
same,TGI,[16],> 100 µM
same,TGI,[17],> 100 µM
same,TGI,[18],> 100 µM
same,TGI,[19],> 100 µM
same,TGI,[20],> 100 µM
same,TGI,[53],> 100 µM
same,TGI,[22],> 100 µM
same,TGI,[54],> 100 µM
same,TGI,[55],> 100 µM
same,TGI,[26],> 100 µM
same,TGI,[28],> 100 µM
same,TGI,[29],> 100 µM
same,TGI,[31],> 100 µM
same,TGI,[32],> 100 µM
same,TGI,[33],> 100 µM
same,TGI,[34],> 100 µM
same,TGI,[35],> 100 µM
same,TGI,[36],> 100 µM
same,TGI,[37],> 100 µM
same,TGI,[39],> 100 µM
same,TGI,[40],> 100 µM
same,TGI,[41],> 100 µM
same,TGI,[44],> 100 µM
same,TGI,[45],> 100 µM
same,TGI,[46],> 100 µM
same,TGI,[56],> 100 µM
same,TGI,[57],> 100 µM
same,TGI,[48],> 100 µM
same,TGI,[58],> 100 µM
CC1(C)OC(=O)C=C(O)O1.CC1(C)OC(=O)C=C(O)O1.CCO.Oc1ccc2c(c1)CCC2.[Ti],GI50,[1],> 100 µM
same,TGI,[1],> 100 µM
same,GI50,[49],> 100 µM
same,TGI,[49],> 100 µM
same,GI50,[2],> 100 µM
same,TGI,[2],> 100 µM
same,GI50,[50],> 100 µM
same,TGI,[50],> 100 µM
same,GI50,[3],> 100 µM
same,TGI,[3],> 100 µM
same,GI50,[4],> 100 µM
same,TGI,[4],> 100 µM
same,GI50,[5],> 100 µM
same,TGI,[5],> 100 µM
same,GI50,[6],> 100 µM
same,TGI,[6],> 100 µM
same,GI50,[7],> 100 µM
same,TGI,[7],> 100 µM
same,GI50,[8],> 100 µM
same,TGI,[8],> 100 µM
same,GI50,[9],> 100 µM
same,TGI,[9],> 100 µM
same,GI50,[10],> 100 µM
same,TGI,[10],> 100 µM
same,GI50,[11],> 100 µM
same,TGI,[11],> 100 µM
same,GI50,[12],> 100 µM
same,TGI,[12],> 100 µM
same,GI50,[13],56.3 µM
same,TGI,[13],> 100 µM
same,GI50,[14],> 100 µM
same,TGI,[14],> 100 µM
same,GI50,[51],> 100 µM
same,TGI,[51],> 100 µM
same,GI50,[52],> 100 µM
same,TGI,[52],> 100 µM
same,GI50,[15],> 100 µM
same,TGI,[15],> 100 µM
same,GI50,[16],> 100 µM
same,TGI,[16],> 100 µM
same,GI50,[17],> 100 µM
same,TGI,[17],> 100 µM
same,GI50,[18],> 100 µM
same,TGI,[18],> 100 µM
same,GI50,[19],> 100 µM
same,TGI,[19],> 100 µM
same,GI50,[53],> 100 µM
same,TGI,[53],> 100 µM
same,GI50,[21],> 100 µM
same,TGI,[21],> 100 µM
same,GI50,[22],> 100 µM
same,TGI,[22],> 100 µM
same,GI50,[54],> 100 µM
same,TGI,[54],> 100 µM
same,GI50,[55],> 100 µM
same,TGI,[55],> 100 µM
same,GI50,[24],> 100 µM
same,TGI,[24],> 100 µM
same,GI50,[25],> 100 µM
same,TGI,[25],> 100 µM
same,GI50,[26],> 100 µM
same,TGI,[26],> 100 µM
same,GI50,[27],> 100 µM
same,TGI,[27],> 100 µM
same,GI50,[28],> 100 µM
same,TGI,[28],> 100 µM
same,GI50,[29],> 100 µM
same,TGI,[29],> 100 µM
same,GI50,[32],> 100 µM
same,TGI,[32],> 100 µM
same,GI50,[33],> 100 µM
same,TGI,[33],> 100 µM
same,GI50,[34],> 100 µM
same,TGI,[34],> 100 µM
same,GI50,[35],> 100 µM
same,TGI,[35],> 100 µM
same,GI50,[36],> 100 µM
same,TGI,[36],> 100 µM
same,GI50,[37],> 100 µM
same,TGI,[37],> 100 µM
same,GI50,[38],> 100 µM
same,TGI,[38],> 100 µM
same,GI50,[39],> 100 µM
same,TGI,[39],> 100 µM
same,GI50,[40],> 100 µM
same,TGI,[40],> 100 µM
same,GI50,[41],> 100 µM
same,TGI,[41],> 100 µM
same,GI50,[43],> 100 µM
same,TGI,[43],> 100 µM
same,GI50,[44],> 100 µM
same,TGI,[44],> 100 µM
same,GI50,[45],> 100 µM
same,TGI,[45],> 100 µM
same,GI50,[46],> 100 µM
same,TGI,[46],> 100 µM
same,GI50,[56],> 100 µM
same,TGI,[56],> 100 µM
same,GI50,[47],> 100 µM
same,TGI,[47],> 100 µM
same,GI50,[57],> 100 µM
same,TGI,[57],> 100 µM
same,GI50,[48],> 100 µM
same,TGI,[48],> 100 µM
same,GI50,[58],> 100 µM
same,TGI,[58],> 100 µM
